A short description of assay [1]: Antimicrobial (antibiotic) activity, graded relative to FLO. The format is cell-based. More on the design: key: +++: higher activity than FLO; ++: equivalent activity of FLO; +: lower activity than FLO; −: no activity observed. Conditions: antimicrobial activity compared with FLO. The text has this: (§1) More information regarding the detailed description of the invention (e.g. material & methods, experimental results) can be found in international patent application PCT/CH03/00568 which is incorporated by reference.

Assay [2] can be described thus: Coagulating activity (coagulation agents for water treatment), graded relative to FLO. More on the design: key: +++: higher activity than FLO; ++: equivalent activity of FLO; +: lower activity than FLO; −: no activity observed. The settings on record: coagulating activity compared with FLO.
Source text: as §1

With AVQLTHQQQGQV [P2c, derivative of FLO], the antlbt. result in assay [1] is listed as “−”. For the same sequence, the Coag. result in assay [2] is “−”.
Consider “GQVGPQQVRQMYRVASNIPST [P3, derivative of FLO]”, for which the antlbt. entry in assay [1] is listed as “−”. Besides, the Coag. entry in assay [2] is “−”.
For the sequence PQRCPSLRQAV [P2a, derivative of FLO], the antlbt. entry in assay [1] is “−”. The Coag. result in assay [2] was “−”.
Consider “PQRCPSLRQAVQLTHQ [P2ab, derivative of FLO]”, for which the Coag. entry in assay [2] is “++”.
With “PQRCPSLRQAVQLTHQQQGQV [P2, derivative of FLO]”, the antlbt. entry in assay [1] is recorded as “+”. Further, in assay [2], the Coag. entry was “++”.
For the sequence “PQRCPSLRQAVQLTHQQQRQV [P2GR40, derivative of FLO]”, the antlbt. result in assay [1] is “++”. Besides, the Coag. result in assay [2] is recorded as “+++”.
For the sequence “QGPGRQPDFQRCGQQLRNISPP [P1, derivative of FLO]”, the Coag. result in assay [2] was “−”.
As for “QGPGRQPDFQRCGQQLRNISPPQRCPSLRQAVQLTHQQQGQVGPQQRQMYRVASNIPST [Flo, protein called FLO, disclosed in WO 03/008441 A2; coagulation and antimicrobial agent, reference compound]”, the antlbt. result in assay [1] is given as “++”. For the same sequence, the Coag. entry in assay [2] is “++”.
On to “RCGQQLRNISPPQRCPSLRQAVQLTHQQQGQ [P2.1, derivative of FLO]”, for which the Coag. entry in assay [2] was “−”.
In the case of SLRQAVQLTHQ [P2b, derivative of FLO], in assay [1], the antlbt. entry is “−”. Further, the Coag. entry in assay [2] is reported as “−”.
